Experiments:
kochia [1] = assay: Test A postemergence; format: in vivo, Kochia scoparia; settings: for Kochia plant response rating: 125 g ai/ha
Procedure, shortened: (§1)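 Scoring: eye-based comparison with untreated controls, 0 for no effect through 100 for complete control, at about day 10. Treatments: directed soil spray preemergence; foliar spray postemergence on 2–10 cm plants at the one- to two-leaf stage. Medium: loam soil with sand.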

sedge, umbrella = assay: Test B flooded paddy test; format: in vivo, Cyperus difformis; settings: Flood, 250 g ai/ha; 0 to 100 scale where 0 is no effect and 100 is complete control
Procedure, shortened: (§2)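 2-leaf stage plants; pots flooded to 3 cm, compound added to paddy water, depth maintained. Greenhouse 13–15 d. Visual rating vs untreated controls, 0 (no effect) to 100 (complete control); dash = no result.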

barnyardgrass [2] = assay: Test A postemergence; format: in vivo, Echinochloa crus-galli; settings: for Barnyardgrass plant response rating: 125 g ai/ha
Procedure, shortened: as §1

blackgrass = assay: Test A postemergence; format: in vivo, Alopecurus myosuroides; settings: for Blackgrass plant response rating: 125 g ai/ha
Procedure, shortened: as §1

ragweed [3] = assay: Test A postemergence; format: in vivo, Ambrosia elatior; settings: for Ragweed plant response rating: 125 g ai/ha
Procedure, shortened: as §1

pigweed [4] = assay: Test A postemergence; format: in vivo, Amaranthus retroflexus; settings: for Pigweed plant response rating: 125 g ai/ha
Procedure, shortened: as §1

Heteranthera limosa = assay: Test B flooded paddy test; format: in vivo; settings: Flood, 250 g ai/ha; 0 to 100 scale where 0 is no effect and 100 is complete control
Procedure, shortened: as §2

rice = assay: Test B flooded paddy test; format: in vivo, Oryza sativa; settings: Flood, 250 g ai/ha; 0 to 100 scale where 0 is no effect and 100 is complete control
Procedure, shortened: as §2

corn = assay: Test A postemergence; format: in vivo, Zea mays; settings: for Corn plant response rating: 125 g ai/ha
Procedure, shortened: as §1

galium = assay: Test A postemergence; format: in vivo, Galium aparine; settings: for Galium plant response rating: 125 g ai/ha
Procedure, shortened: as §1

kochia [5] = assay: Test A preemergence; format: in vivo, Kochia scoparia; settings: 0 to 100 scale where 0 is no effect and 100 is complete control
Procedure, shortened: as §1

giant foxtail [6] = assay: Test A preemergence; format: in vivo, Setaria faberii; settings: 0 to 100 scale where 0 is no effect and 100 is complete control
Procedure, shortened: as §1

barnyardgrass [7] = assay: Test A preemergence; format: in vivo, Echinochloa crus-galli; settings: 0 to 100 scale where 0 is no effect and 100 is complete control
Procedure, shortened: as §1

ragweed [8] = assay: Test A preemergence; format: in vivo, Ambrosia elatior; settings: 0 to 100 scale where 0 is no effect and 100 is complete control
Procedure, shortened: as §1

pigweed [9] = assay: Test A preemergence; format: in vivo, Amaranthus retroflexus; settings: 0 to 100 scale where 0 is no effect and 100 is complete control
Procedure, shortened: as §1

Italian ryegrass [10] = assay: Test A postemergence; format: in vivo, Lolium multiflorum; settings: for Ryegrass, Italian plant response rating: 125 g ai/ha
Procedure, shortened: as §1

barnyardgrass [11] = assay: Test B flooded paddy test; format: in vivo, Echinochloa crus-galli; settings: Flood, 250 g ai/ha; 0 to 100 scale where 0 is no effect and 100 is complete control
Procedure, shortened: as §2

Italian ryegrass [12] = assay: Test A preemergence; format: in vivo, Lolium multiflorum; settings: 0 to 100 scale where 0 is no effect and 100 is complete control
Procedure, shortened: as §1

wheat = assay: Test A postemergence; format: in vivo, Triticum aestivum; settings: for Wheat plant response rating: 125 g ai/ha
Procedure, shortened: as §1

giant foxtail [13] = assay: Test A postemergence; format: in vivo, Setaria faberii; settings: for Foxtail, Giant plant response rating: 125 g ai/ha
Procedure, shortened: as §1

[14] = 0 to 100 scale where 0 is no effect and 100 is complete control
[15] = 500 g ai/ha, 0 to 100 scale where 0 is no effect and 100 is complete control
[16] = 31 g ai/ha, 0 to 100 scale, 0 no effect, 100 complete control
[17] = 31 g ai/ha, visual, approximately 10 days

Compound | Kochia plant response rating (kochia [1]; [14]) | Plant response rating, Sedge, Umbrella (sedge, umbrella) | Barnyardgrass plant response rating (barnyardgrass [2]; [14]) | Blackgrass plant response rating (blackgrass; [14]) | Ragweed plant response rating (ragweed [3]; [14]) | Pigweed plant response rating (pigweed [4]; [14]) | Plant response rating, Ducksalad (Heteranthera limosa) | Plant response rating, Rice (rice) | Corn plant response rating (corn; [14]) | Galium plant response rating (galium; [14]) | Plant response rating, Kochia (kochia [5]; 125 g ai/ha) | Plant response rating, Foxtail, Giant (giant foxtail [6]; 125 g ai/ha) | Plant response rating, Barnyardgrass (barnyardgrass [7]; 125 g ai/ha) | Plant response rating, Ragweed (ragweed [8]; 125 g ai/ha) | Plant response rating, Pigweed (pigweed [9]; 125 g ai/ha) | Ryegrass, Italian plant response rating (Italian ryegrass [10]; [14]) | Plant response rating, Barnyardgrass (barnyardgrass [11]) | Plant response rating, Ryegrass, Italian (Italian ryegrass [12]; 125 g ai/ha) | Wheat plant response rating (wheat; [14]) | Foxtail, Giant plant response rating (giant foxtail [13]; [14]) | further results
CC(F)c1cccc(Oc2ncc(Cl)cn2)c1-n1cc(Br)cn1 (stereo not drawn) [Compound 146] | 70 | 40 | 10 | 20 | 10 | 100 | 40 | 0 | 10 | 50 | 40 | 70 | 20 | 0 | 60 | 0 | 20 | 0 | 0 | 20 | Plant response rating, Kochia (kochia [1]; [15]): 100; Plant response rating, Barnyardgrass (barnyardgrass [2]; [15]): 60; Plant response rating, Blackgrass (blackgrass; [15]): 70; Plant response rating, Ragweed (ragweed [3]; [15]): 10; Plant response rating, Pigweed (pigweed [4]; [15]): 100; Plant response rating, Corn (corn; [15]): 30; Plant response rating, Galium (galium; [15]): 100; Kochia plant response rating (kochia [5]; 500 g ai/ha): 100; Foxtail, Giant plant response rating (giant foxtail [6]; 500 g ai/ha): 100; Barnyardgrass plant response rating (barnyardgrass [7]; 500 g ai/ha): 90; Ragweed plant response rating (ragweed [8]; 500 g ai/ha): 100; Pigweed plant response rating (pigweed [9]; 500 g ai/ha): 100; Plant response rating, Ryegrass, Italian (Italian ryegrass [10]; [15]): 40; Ryegrass, Italian plant response rating (Italian ryegrass [12]; 500 g ai/ha): 50; Plant response rating, Wheat (wheat; [15]): 0; Plant response rating, Foxtail, Giant (giant foxtail [13]; [15]): 80
CC(C)Oc1cnn(-c2c(C#N)cccc2Oc2ncc(Cl)cn2)c1 [Compound 149] | 70 | 65 | 70 | 80 | 80 | 100 | 70 | 0 | 20 | 100 | 100 | 100 | 90 | 60 | 100 | 30 | 0 | 20 | 0 | 90 | Plant response rating, Kochia (kochia [1]; [16]): 60; Plant response rating, Barnyardgrass (barnyardgrass [2]; [16]): 20; Plant response rating, Blackgrass (blackgrass; [16]): 50; Plant response rating, Ragweed (ragweed [3]; [16]): 50; Plant response rating, Pigweed (pigweed [4]; [16]): 60; Plant response rating, Corn (corn; [16]): 0; Plant response rating, Galium (galium; [16]): 70; Plant response rating, Kochia (kochia [5]; [17]): 70; Plant response rating, Foxtail, Giant (giant foxtail [6]; [17]): 60; Plant response rating, Barnyardgrass (barnyardgrass [7]; [17]): 40; Plant response rating, Ragweed (ragweed [8]; [17]): 0; Plant response rating, Pigweed (pigweed [9]; [17]): 100; Plant response rating, Ryegrass, Italian (Italian ryegrass [10]; [16]): 0; Plant response rating, Ryegrass, Italian (Italian ryegrass [12]; [17]): 0; Plant response rating, Wheat (wheat; [16]): 0; Plant response rating, Foxtail, Giant (giant foxtail [13]; [16]): 20
